Test results published in PMC9542405, “Design, synthesis and antitumor activity of 5-trifluoromethylpyrimidine derivatives as EGFR inhibitors” (Journal of Enzyme Inhibition and Medicinal Chemistry, 2022).

Assays:
[1] = test system: NRK-52E (Normal rat kidney cell line) cells; experiment: Cytotoxicity evaluation against normal cell line (MTT); assay type: cell-based; settings: 10 μM
From the text: Three tumour cells A549, MCF-7, and PC-3 with high expression of EGFR^wt were used to investigate antitumor activities of compounds 9a–9x. NRK-52E (Normal rat kidney cell line) cells were used to evaluate cytotoxicity of compounds 9a–9x. They were all tested with typical MTT method, and Gefitinib were used as positive controls.
NRK-52E (Normal rat kidney cell line) cells were used to evaluate cytotoxicity of compounds 9a–9x.

A549 cells [2] = experiment: A549 cell cycle analysis (flow cytometry); assay type: cell-based, Human
PC-3 cells = experiment: In vitro activity against cancer cell lines (MTT), PC-3; assay type: cell-based; settings: Homo sapiens, mean ± SD of three replicates
From the text: (§1) Co., Ltd. A549 (Human non-small-cell lung cancer cell line) cells, MCF-7 (Human breast cancer
(§2) cell line) cells, and PC-3 (Human prostate cancer cell line) cells. They were all purchased from the
(§3) Shanghai Cell Bank of the Chinese Academy of Sciences. NRK-52E (Normal rat kidney cell line)
(§4) cells donated by Guizhou Medicinal University were also used to evaluate the cytotoxicity.

MCF-7 cells = experiment: In vitro activity against cancer cell lines (MTT), MCF-7; assay type: cell-based; settings: Homo sapiens, MCF7, mean ± SD of three replicates
From the text: as §1, §2, §3, §4

EGFR^wt-TK = molecular target: T1, EGFR^wt-TK (Homo sapiens, UniProt P00533); experiment: In vitro EGFR^wt-TK assay (ELISA kit); assay type: biochemical; settings: mean ± SD of three replicates; for inhibition at 1 µM: read-out: EGFR^wt-TK inhibition rate
T1 construct: purchased
T1 sequence (P00533 25-1210): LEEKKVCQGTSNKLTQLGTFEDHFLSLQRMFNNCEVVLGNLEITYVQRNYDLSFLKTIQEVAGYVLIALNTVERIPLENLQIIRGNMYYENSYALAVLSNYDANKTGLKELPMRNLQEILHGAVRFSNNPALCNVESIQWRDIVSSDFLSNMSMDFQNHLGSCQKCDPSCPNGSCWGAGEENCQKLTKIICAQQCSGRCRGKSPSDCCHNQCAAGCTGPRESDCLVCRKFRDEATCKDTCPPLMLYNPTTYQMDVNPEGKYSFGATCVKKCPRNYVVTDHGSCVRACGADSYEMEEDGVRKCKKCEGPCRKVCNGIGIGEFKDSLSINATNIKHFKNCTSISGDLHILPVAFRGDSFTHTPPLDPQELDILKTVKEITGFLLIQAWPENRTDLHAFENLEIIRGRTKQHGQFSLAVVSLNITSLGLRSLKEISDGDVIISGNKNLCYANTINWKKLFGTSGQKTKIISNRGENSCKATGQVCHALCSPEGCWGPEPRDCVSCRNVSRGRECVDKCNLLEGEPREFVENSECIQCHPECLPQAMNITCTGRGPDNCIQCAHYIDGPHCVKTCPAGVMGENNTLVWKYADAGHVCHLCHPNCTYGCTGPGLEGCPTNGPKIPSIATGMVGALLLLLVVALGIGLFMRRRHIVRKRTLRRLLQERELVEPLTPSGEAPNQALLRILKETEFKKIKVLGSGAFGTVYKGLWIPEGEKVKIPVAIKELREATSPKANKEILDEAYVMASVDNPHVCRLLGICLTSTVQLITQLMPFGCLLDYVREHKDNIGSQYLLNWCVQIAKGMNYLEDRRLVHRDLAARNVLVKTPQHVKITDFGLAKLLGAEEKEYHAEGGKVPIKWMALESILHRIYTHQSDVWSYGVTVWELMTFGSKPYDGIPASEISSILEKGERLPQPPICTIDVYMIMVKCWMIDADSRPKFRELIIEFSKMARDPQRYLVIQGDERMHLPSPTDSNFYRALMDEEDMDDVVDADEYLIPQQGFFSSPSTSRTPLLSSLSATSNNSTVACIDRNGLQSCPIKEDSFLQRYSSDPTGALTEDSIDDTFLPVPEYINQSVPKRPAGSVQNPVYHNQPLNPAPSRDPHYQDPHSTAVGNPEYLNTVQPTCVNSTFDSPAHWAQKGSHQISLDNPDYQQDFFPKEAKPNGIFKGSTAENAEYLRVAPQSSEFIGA
Description: The IC50 values of target compounds against EGFR^wt were calculated from the dose − response curve under Graph-Pad Prism 9, which was tested at the different concentrations.

A549 cells [3] = experiment: In vitro activity against cancer cell lines (MTT), A549; assay type: cell-based; settings: Homo sapiens, mean ± SD of three replicates
From the text: as §1, §2, §3, §4

A549 cells [4] = experiment: A549 cell apoptosis (Annexin V-FITC/PI flow cytometry); settings: 48 h
Description: And then, the original culture medium was replaced with 0.1 μM, 0.5 μM, and 1 μM compounds (Geftinib or the testing compound) in the cell incubator for 48 h. After trypsin digests cells, the cells were collected after centrifugation, resuspended with PBS and counted. After suspension of the cells with Annexin V – FITC binding solution and mixing with PI staining solution, the fluorescence density was detected by flow cytometry in BD Accuri C6 flow cytometry, which was provided by School of Pharmaceutical Sciences, Guizhou University, China.

With CNC(=O)c1sccc1Nc1nc(Nc2ccc(NC(=O)C=Cc3cccc(F)c3)cc2)ncc1C(F)(F)F [Compound 9u, 3–(2-{4-[3-(3-Fluoro-phenyl)-acryloylamino]-phenylamino} -5-trifluoromethyl-pyrimidin-4-ylamino)-thiophene-2-carboxylic acid methylamide] the melting point was 237.5 to 238.8 °C, the “inhibition against NRK-52E cells” value [1] was “less than 5%” and the “Proportion of A549 cells at G2/M” value (A549 cells [2]; 0.1 μM) was 19.79%. The “Proportion of A549 cells at G2/M” value (A549 cells [2]; 1 μM) was 43.92%, the IC50 (PC-3 cells) was 5.12 ± 0.73 µM and the IC50 (MCF-7 cells) was 3.24 ± 0.16 µM. The “EGFR^wt-TK inhibition rate” value (EGFR^wt-TK; 1 μM) was 62.73 ± 1.86%, the inhibition at 1 µM (EGFR^wt-TK; 1 μM) was greater than 50% and the IC50 (EGFR^wt-TK) was 0.091 ± 0.0084 µM. For the same molecule, the IC50 (A549 cells [3]) was 0.35 ± 0.11 µM, the “Q2-4 (early apoptosis)” value (A549 cells [4]; A549, 0.1 μM) was 3.39% and the “Q2-4 (early apoptosis)” value (A549 cells [4]; A549, 1 μM) was 52.96%.

In the case of COc1cc2ncnc(Nc3ccc(F)c(Cl)c3)c2cc1OCCCN1CCOCC1 [Gefitinib], the “Proportion of A549 cells at G2/M” value (A549 cells [2]; 0.1 μM) is reported as 17.32%, the “Proportion of A549 cells at G2/M” value (A549 cells [2]; 0.5 μM) is reported as 20.72% and the “Proportion of A549 cells at G2/M” value (A549 cells [2]; 1 μM) is reported as 21.45%. For the same molecule, the “Q2-4 (early apoptosis)” value (A549 cells [4]; A549, 0.1 μM) was 1.03% and the “Q2-4 (early apoptosis)” value (A549 cells [4]; A549, 1 μM) was 11.98%.

In the case of CNC(=O)c1sccc1Nc1nc(Nc2ccc(NC(=O)C3CCCCC3)cc2)ncc1C(F)(F)F [Compound 9o, 3-{2-[4-(Cyclohexanecarbonyl-amino)-phenylamino]-5-trifluoromethyl-pyrimidin-4-ylamino}-thiophene-2-carboxylic acid methylamide], the melting point is reported as 246.7 to 248.2 °C, the IC50 (PC-3 cells) is reported as greater than 20 µM and the IC50 (MCF-7 cells) is reported as 13.5 ± 1.24 µM. It also gave an inhibition at 1 µM (EGFR^wt-TK; 1 μM) of 26.6 ± 1.38% and an IC50 (A549 cells [3]) of 8.49 ± 0.63 µM.

In the case of CNC(=O)c1sccc1Nc1nc(Nc2ccc(NC(=O)Nc3cccc(F)c3)cc2)ncc1C(F)(F)F [Compound 9w, 3-(2-{4-[3–(3-Fluoro-phenyl)-ureido]-phenylamino}-5-trifluoromethyl-pyrimidin-4-ylamino)-thiophene-2-carboxylic acid methylamide], the melting point is reported as greater than 250 °C, the IC50 (PC-3 cells) is reported as 10.6 ± 1.74 µM and the IC50 (MCF-7 cells) is reported as 6.15 ± 0.77 µM. For the same molecule, the inhibition at 1 µM (EGFR^wt-TK; 1 μM) was 47.7 ± 1.72% and the IC50 (A549 cells [3]) was 3.98 ± 0.83 µM.
